Experiments:
[1] = molecular target: T1, human DHFR-HiBiT fusion protein (Homo sapiens, UniProt P00374); experiment: DHFR-HiBiT assay (high-throughput DHFR abundance) in HBL1 cells; type: cell-based; details: % change in untreated cellular DHFR level (control); negative = degradation, positive = stabilization; HBL1, 24 h; read-out: efficacy (%)
T1 construct: expressed in transfected cells; host or cells: HBL1 cells retrovirally infected with pBMN-Ires-Lyt-2 carrying DHFR-HiBiT
T1 sequence (P00374 with tags, fused parts or gaps): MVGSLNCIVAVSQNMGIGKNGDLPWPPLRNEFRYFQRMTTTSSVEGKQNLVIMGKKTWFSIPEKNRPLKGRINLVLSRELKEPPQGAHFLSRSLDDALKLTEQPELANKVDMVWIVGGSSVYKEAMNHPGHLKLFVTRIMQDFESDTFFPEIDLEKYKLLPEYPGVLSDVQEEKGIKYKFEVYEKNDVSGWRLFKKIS
Source text: The human DHFR-HiBiT construct was synthetized (Bio Basic) and cloned into the retroviral vector pBMN-Ires-Lyt-2 (provided by G. Nolan, Stanford University, Stanford, CA) which expresses the coding region of mouse CD8a (Lyt-2) using the restriction sites BamHI/XhoI. All constructs were sequenced to validate authenticity. Infected cells were positively selected based on murine CD8a expression using magnetic beads (Miltenyi Biotech).
Cell culture: Human embryonic kidney HEK293T cells were maintained in DMEM (Gibco) supplemented with 10% fetal bovine serum (Hyclone), 2 mmol/L 1-glutamine, HEPES (Gibco) and 100 U/mL penicillin/streptomycin (Invitrogen). The lymphoma cell line HBL1 were maintained in RPMI (Life Technology) supplemented with 5% fetal bovine serum (Hyclone), 2 mmol/L L-glutamine, HEPES (Gibco) and 100 U/mL penicillin/streptomycin (Invitrogen).
Transfection and retroviral infections: Transfections were performed using Lipofectamine 2000 (Invitrogen) according to the manufacturer's protocol. For retroviral infections, viruses were produced in HEK293T cells and used to infect HBL1 cell line. […] Supernatants containing the retrovirus were collected and filtered at 48- and 72-hours post-transfection. HBL1 cells were centrifuged and then resuspended with the retroviral supernatant with 8 μg/ml of polybrene. The cells were spin-infected twice on consecutive days at 2,500 rpm, at RT, for 90 minutes.
Lytic HiBiT Detection: Cells were plated in solid white 1536-well tissue culture plates (Greiner), at the concentration of 2000 cells/well. After treatment, an equal volume of Nano-Glo HiBiT Lytic Reagent (Promega) containing the substrate furimazine and Large BiT (LgBiT) was added to the cells according to the manufacturer's protocol. Cells were incubated for 10 min at room temperature, and luminescence was measured using a Perkin Elmer ViewLux microplate imager with 30 seconds of exposure time.

[2] = tested on: HBL1 cell line; experiment: CellTiter-Glo cell viability (cytotox), HBL1 cell line, 72 hours; type: cell-based; details: HBL1 cell line, CellTiter-Glo; unit inferred
Protocol: CellTiter-Glo viability assays: Five μL of cells (2500 cells) from the 12-well plate culture were plated into white 1536-well plates (Greiner, Monroe, NC, 789173-F) in 6 replicates. CellTiter-Glo Luminescent Cell Viability Assay (CTG) (Promega, G7572), 2.5 μL/well reagent was added with a BioRAPTR FRD (Beckman Coulter, Sykesville, MD), plates were incubated in the dark at ambient temperature for 10 min, and luminescence measured with a ViewLux 1430 Ultra HTS (Perkin Elmer, Waltham, MA).

Compound | Dmax [1] [%] | IC50 [2] [µM]
Cc1ncsc1-c1ccc(CNC(=O)[C@@H]2C[C@@H](O)CN2C(=O)C(NC(=O)CCOCCOCCC(=O)NCCCCCCN(Cc2cnc3nc(N)nc(N)c3n2)c2ccc(C(=O)N[C@@H](CCC(=O)O)C(=O)O)cc2)C(C)(C)C)cc1 (stereo partly drawn) [NCGC00690397, (4-(((2,4-diaminopteridin-6-yl)methyl)(3-((2S,4R)-4-hydroxy-2-((4-(4-methylthiazol-5-yl)benzyl)carbamoyl)pyrrolidine-1-carbonyl)-2,2-dimethyl-5,14-dioxo-8,11-dioxa-4,15-diazahenicosan-21-yl)amino)benzoyl)glutamic acid] | 64.1 | 28.7
COC(=O)[C@H](CCC(=O)NCCCCCCCCNc1cccc2c1C(=O)N(C1CCC(=O)NC1=O)C2=O)NC(=O)CC[C@H](NC(=O)CC[C@H](NC(=O)CC[C@H](NC(=O)CC[C@H](NC(=O)c1ccc(N(C)Cc2cnc3nc(N)nc(N)c3n2)cc1)C(=O)O)C(=O)OC)C(=O)OC)C(=O)OC (stereo partly drawn) [NCGC00687811, (2S,7S,12S,17S,22S)-2-(4-(((2,4-diaminopteridin-6-yl)methyl)(methyl)amino)benzamido)-34-((2-(2,6-dioxopiperidin-3-yl)-1,3-dioxoisoindolin-4-yl)amino)-7,12,17,22-tetrakis(methoxycarbonyl)-5,10,15,20,25-pentaoxo-6,11,16,21,26-pentaazatetratriacontanoic acid] | 40.5 | 22.4
COC(=O)[C@H](CCC(=O)NCCCCCCCCNc1cccc2c1C(=O)N(C1CCC(=O)NC1=O)C2=O)NC(=O)CC[C@H](NC(=O)CC[C@H](NC(=O)CC[C@H](NC(=O)c1ccc(N(C)Cc2cnc3nc(N)nc(N)c3n2)cc1)C(=O)O)C(=O)OC)C(=O)OC (stereo partly drawn) [NCGC00687807, (2S,7S,12S,17S)-2-(4-(((2,4-diaminopteridin-6-yl)methyl)(methyl)amino)benzamido)-29-((2-(2,6-dioxopiperidin-3-yl)-1,3-dioxoisoindolin-4-yl)amino)-7,12,17-tris(methoxycarbonyl)-5,10,15,20-tetraoxo-6,11,16,21-tetraazanonacosanoic acid] | 48.1 | 20.8
CN(Cc1cnc2nc(N)nc(N)c2n1)c1ccc(C(=O)N[C@@H](CCC(=O)NCCOCCOCCNc2cccc3c2C(=O)N(C2CCC(=O)NC2=O)C3=O)C(=O)O)cc1 (some centres unmarked) [NCGC00687555] | 56.9 | 3.93
COC(=O)[C@H](CCC(=O)NCCCCCCCCNc1cccc2c1C(=O)N(C1CCC(=O)NC1=O)C2=O)NC(=O)c1ccc(N(C)Cc2cnc3nc(N)nc(N)c3n2)cc1 (some centres unmarked) [NCGC00687472] | 62.9 | 12.2
COC(=O)[C@H](CCC(=O)NCCOCCOCCOCCNC(=O)COc1cccc2c1C(=O)N(C1CCC(=O)NC1=O)C2=O)NC(=O)c1ccc(N(C)Cc2cnc3nc(N)nc(N)c3n2)cc1 (stereo partly drawn) [NCGC00842394, Methyl (19S)-19-(4-(((2,4-diaminopteridin-6-yl)methyl)(methyl)amino)benzamido)-1-((2-(2,6-dioxopiperidin-3-yl)-1,3-dioxoisoindolin-4-yl)oxy)-2,16-dioxo-6,9,12-trioxa-3,15-diazaicosan-20-oate] | 27.6 | 33.9
COC(=O)[C@H](CCC(=O)NCCCCCCCCNc1cccc2c1C(=O)N(C1CCC(=O)NC1=O)C2=O)NC(=O)CC[C@H](NC(=O)CC[C@H](NC(=O)c1ccc(N(C)Cc2cnc3nc(N)nc(N)c3n2)cc1)C(=O)O)C(=O)OC (stereo partly drawn) [NCGC00687569, N2-(4-(((2,4-diaminopteridin-6-yl)methyl)(methyl)amino)benzoyl)-N5-((2S)-5-(((2S)-5-((8-((2-(2,6-dioxopiperidin-3-yl)-1,3-dioxoisoindolin-4-yl)amino)octyl)amino)-1-methoxy-1,5-dioxopentan-2-yl)amino)-1-methoxy-1,5-dioxopentan-2-yl)-L-glutamine] | 53.9 | 21.5
CN(Cc1cnc2nc(N)nc(N)c2n1)c1ccc(C(=O)NC(CCC(=O)O)C(=O)NCCCCCCCCNc2cccc3c2C(=O)N(C2CCC(=O)NC2=O)C3=O)cc1 (centres unmarked) [NCGC00690075, 4-(4-(((2,4-diaminopteridin-6-yl)methyl)(methyl)amino)benzamido)-5-((8-((2-(2,6-dioxopiperidin-3-yl)-1,3-dioxoisoindolin-4-yl)amino)octyl)amino)-5-oxopentanoic acid] |  | 70
Cc1ncsc1-c1ccc(CNC(=O)[C@@H]2C[C@@H](O)CN2C(=O)C(NC(=O)CCOCCOCCOCCOCCC(=O)NCCCCCCN(Cc2cnc3nc(N)nc(N)c3n2)c2ccc(C(=O)N[C@@H](CCC(=O)O)C(=O)O)cc2)C(C)(C)C)cc1 (stereo partly drawn) [NCGC00690398, (4-(((2,4-diaminopteridin-6-yl)methyl)(3-((2S,4R)-4-hydroxy-2-((4-(4-methylthiazol-5-yl)benzyl)carbamoyl)pyrrolidine-1-carbonyl)-2,2-dimethyl-5,20-dioxo-8,11,14,17-tetraoxa-4,21-diazaheptacosan-27-yl)amino)benzoyl)glutamic acid] | 26 | 36.7
CN(Cc1cnc2nc(N)nc(N)c2n1)c1ccc(C(=O)N[C@@H](CCC(=O)O)C(=O)NCCCNc2cccc3c2C(=O)N(C2CCC(=O)NC2=O)C3=O)cc1 (stereo partly drawn) [NCGC00690412, (4S)-4-(4-(((2,4-diaminopteridin-6-yl)methyl)(methyl)amino)benzamido)-5-((3-((2-(2,6-dioxopiperidin-3-yl)-1,3-dioxoisoindolin-4-yl)amino)propyl)amino)-5-oxopentanoic acid] |  | 38.6
CN(Cc1cnc2nc(N)nc(N)c2n1)c1ccc(C(=O)N[C@@H](CCC(=O)O)C(=O)NCCOCCOCCNc2cccc3c2C(=O)N(C2CCC(=O)NC2=O)C3=O)cc1 (stereo partly drawn) [NCGC00690407, (4S)-4-(4-(((2,4-diaminopteridin-6-yl)methyl)(methyl)amino)benzamido)-5-((2-(2-(2-((2-(2,6-dioxopiperidin-3-yl)-1,3-dioxoisoindolin-4-yl)amino)ethoxy)ethoxy)ethyl)amino)-5-oxopentanoic acid] |  | 32.9
Nc1nc(N)c2nc(CN(CCCCCCNC(=O)COc3cccc4c3C(=O)N(C3CCC(=O)NC3=O)C4=O)c3ccc(C(=O)N[C@@H](CCC(=O)O)C(=O)O)cc3)cnc2n1 (some centres unmarked) [NCGC00690396, (4-(((2,4-diaminopteridin-6-yl)methyl)(6-(2-((2-(2,6-dioxopiperidin-3-yl)-1,3-dioxoisoindolin-4-yl)oxy)acetamido)hexyl)amino)benzoyl)glutamic acid] |  | 26.6
COC(=O)[C@H](CCC(=O)NCCCCCCCCNc1cccc2c1C(=O)N(C1CCC(=O)NC1=O)C2=O)NC(=O)CC[C@H](NC(=O)c1ccc(N(C)Cc2cnc3nc(N)nc(N)c3n2)cc1)C(=O)O (some centres unmarked) [NCGC00687576] | 62.3 | 17
CN(Cc1cnc2nc(N)nc(N)c2n1)c1ccc(C(=O)N[C@@H](CCC(=O)O)C(=O)NCCOCCOCCOCCNC(=O)COc2cccc3c2C(=O)N(C2CCC(=O)NC2=O)C3=O)cc1 (stereo partly drawn) [NCGC00690069, (17S)-17-(4-(((2,4-diaminopteridin-6-yl)methyl)(methyl)amino)benzamido)-1-((2-(2,6-dioxopiperidin-3-yl)-1,3-dioxoisoindolin-4-yl)oxy)-2,16-dioxo-6,9,12-trioxa-3,15-diazaicosan-20-oic acid] |  | 35.8

Source: patent US20230406859A1, “METHOTREXATE ANALOGS AND METHODS OF USE” (The United States of America, as represented by the …, priority 2020, published 2023)
